Test results reported in PMC10047683, “A Novel Family of Lysosomotropic Tetracyclic Compounds for Treating Leukemia” (Cancers, 2023).

Tests used:
[1] = test system: healthy donor blood samples (BC: buffy coat); test: Combination with ATO, viability by flow cytometry and Bliss synergy; format: cell-based, human; conditions: 48 h
Experimental: (§1) First, 2 × 10^5 (72 h assays in cell lines (Supplementary File S1)), 3 × 10^5 (48 h assays in cell lines) or 7.5 × 10^5 (primary AML, healthy donor buffy coats) cells per mL were cultured in 96-well plates, and all drugs were added at the indicated concentrations. In α-tocopherol experiments, cells were treated with growing concentrations of α-tocopherol and EDK drugs for 48 h. In the NAC and 3MA experiments, treatment was simultaneous with EDK compounds. In glucose deprivation experiments, cells were cultivated with a standard medium (glucose high, 2 g/L), a standard medium without glucose, or a standard medium with galactose (2 g/L) and without glucose. Cell viability was measured via 7-AAD (eBioscience) exclusion and Hoechst33342 (Sigma-Aldrich, St. Louis, MO, USA) positivity staining via flow cytometry, and the cell count was obtained through volume. In the experiments with the primary cells, analyses were performed inside the blast population as detected via blast gates (CD45^low SSC^int). For solid tumor cell lines, viability was analyzed using CellTiter-Glo® Luminescent Cell Viability Assay (Promega).
(§2) Synergy was calculated using SynergyFinder 2.0 with the Bliss reference model.

[2] = test system: AML patient samples; test: as above; format: cell-based, human; conditions: for Effectivity (%Viability reduction): 48 h
Experimental: as §1, §2

[3] = test system: KG-1; test: 7AAD and annexin-V staining, flow cytometry; format: cell-based; conditions: 10 µM, 24 h, representative plot
Experimental: (§3) Seahorse studies were performed using the Agilent Seahorse XF Real-Time ATP Rate Assay Kit. Briefly, MonoMac1 and HL60 cells were suspended in complete medium at a concentration of 5 × 10^5 cells per ml and treated with EDK-87/EDK-88 with the indicated compounds for 18 h. Cells were washed and suspended in Seahorse medium (Seahorse XF medium with 2 mM glutamine, 10 mM glucose, 2 mM pyruvate) at a concentration of 1.4 × 10^6 (Mono Mac1) and 2.4 × 10^6 (HL60) cells per mL; 50 μL per well were seeded in 96-well Seahorse plates precoated with polylysine, centrifuged, and left to adhere for 20 min at 37 °C before adding prewarmed Seahorse medium to a final volume of 180 μL per well. Basal OCR and ECAR were measured, and the ATP rate assay was performed with the sequential injection of 1.5 μM oligomycin and 0.5 μM rotenone/antimycin A. A detailed description of this protocol was provided by the manufacturers. Mitochondrial ROS was quantified using the MitoSOX Red Mitochondrial Superoxide Indicator (Thermo Fischer Scientific, Waltham, MA, USA), as previously described. The activation of executive caspases was determined using CaspaseGlo® 3/7 Assay (Promega), following the manufacturer’s recommendations. The detection of Annexin-V staining was also described previously.

[4] = test system: MonoMac-1; test: 7AAD and annexin-V staining, flow cytometry; format: cell-based; conditions: 10 µM, 24 h, representative plot
Experimental: as §3

[5] = test system: MonoMac1 AML cells; test: MonoMac1 AML xenograft, bone-marrow engraftment; format: in vivo, NSG mice; conditions: 30 mg/kg IP, 10 consecutive days; engraftment at Day 12
Experimental: We myeloablated 6–8-week-old NOD.Cg-Prkdc^scid Il2rg^tm1Wjl/SzJ (NSG, Jackson Laboratories) mice with busulfan (30 mg/kg IP) at Day 0. The next day, mice were transplanted with KG1 (10 million cells per mouse) or MonoMac1 (1 million per mouse) AML cells that had previously been transduced with luciferase-containing plasmid pLL-EF1a-rFLuc-T2A-GFP (Systems Bioscience #LL410PA-1) and left untreated for 3 (MonoMac1) or 5 days (KG1). For IP administration, compounds were dissolved in DMSO and diluted in saline prior to injection. For SC treatments, drugs were solubilized using Tween 80 (Escuder) and high-viscosity carboxymethylcellulose (CMC, Merck). For bioluminescence detection, mice were SC-administered 150 mg/kg Xenolight D-luciferin potassium salt luminescent substrate (Perkin Elmer), and the luminescence of isoflurane-anesthetized mice was acquired after 10 min in an IVIS Lumina II imaging device (Perkin Elmer) at adequate acquisition times (2 min for MonoMac-1, 30 s for KG1). The following quantitation and analysis were conducted with Aura Imaging software (Spectral Instruments Imaging). The last day of the experiment, mice were culled, and tibias and femurs were harvested. Engraftment was determined as the percentage of live human CD45-expressing cells in the bone marrow as assessed with flow cytometry. […]

[6] = test system: AML cell lines; test: Lysosomal mass with Lysotracker probe; format: cell-based; conditions: 10 µM, 24 h
Experimental: Lysosomal mass was determined using Lysotracker DeepRed (Thermo Fisher, Waltham, MA, USA), and analyzed with cytometry and microscopy, as explained previously. The lysosomal activity assays were performed following the guidance of the study that first introduced the Lysosomal Metriq probe. AML cell lines were lentivirally transduced with the pCW57.1 Lysosomal-METRIQ plasmid (Addgene #135401), and selected with puromycin (2 µg/mL). Cells were treated for 3 consecutive days with 3 µg/mL doxycycline (Sigma Aldrich, St. Louis, MO, USA), incubated with the compounds of interest for 24 h, and analyzed in the flow cytometer. Lysosomal activity was measured as the ratio between red fluorescence (acting as an internal control) and green fluorescence (located in the lysosomes and degraded to different degrees depending on the activity of the lysosomal compartment). For the Galectin 3 puncta assay, AML cell lines were lentivirally transduced with the mAG-Gal3 plasmid (Addgene #62734). Treatments and analysis were performed as described elsewhere. Then, 2 × 10^5 cells per ml were pulsed with dextran-rhodamine (0.25 mg/mL) for 24 h, chased for 2 h, treated with EDK compounds at the indicated concentrations for 48 h, attached to poly-L-lysine (50 μg/mL)-coated chambered coverslips (μ-Slide 8 well, Ibidi), imaged in a Zeiss LSM880 microscope, and analyzed with Fiji software.

CN1CCC(=C2c3ccccc3-c3c2sc2ccccc32)CC1 [EDK-87]
Effectivity (%Viability reduction) ([1]; BC#1, single agent 1 µM): 0% | Effectivity (%Viability reduction) ([1]; BC#1, single agent 5 µM): 4% | Effectivity (%Viability reduction) ([1]; BC#1, single agent 10 µM): 19% | Effectivity (%Viability reduction) ([1]; BC#2, single agent 1 µM): 0% | Effectivity (%Viability reduction) ([1]; BC#2, single agent 5 µM): 4% | Effectivity (%Viability reduction) ([1]; BC#2, single agent 10 µM): 14% | synergy with ATO ([2]; AML cell lines and three primary AML samples): highly synergistic | Effectivity (%Viability reduction) ([2]; AML#63, single agent 5 µM): -5% | Effectivity (%Viability reduction) ([2]; AML#63, single agent 10 µM): -19% | Effectivity (%Viability reduction) ([2]; AML#98, single agent 1 µM): -9% | Effectivity (%Viability reduction) ([2]; AML#98, single agent 5 µM): 0% | Effectivity (%Viability reduction) ([2]; AML#98, single agent 10 µM): 8% | Effectivity (%Viability reduction) ([2]; AML#133, single agent 1 µM): -9% | Effectivity (%Viability reduction) ([2]; AML#133, single agent 5 µM): 3% | Effectivity (%Viability reduction) ([2]; AML#133, single agent 10 µM): 19% | Q1 of 7AAD/annexin V plot [3]: 0.61 | Q2 of 7AAD/annexin V plot [3]: 10.0 | Q3 of 7AAD/annexin V plot [3]: 50.3 | Q4 of 7AAD/annexin V plot [3]: 39.1 | Q1 of 7AAD/annexin V plot [4]: 2.96 | Q2 of 7AAD/annexin V plot [4]: 9.41 | Q3 of 7AAD/annexin V plot [4]: 21.7 | Q4 of 7AAD/annexin V plot [4]: 65.9 | reduced the leukemic burden in the bone marrow [5]: 58.44% | lysosomal mass (Lysotracker) [6]: expansion of the lysosomal mass
